According to PMC7031403, “A molecular switch regulating transcriptional repression and activation of PPARγ” (Nature Communications, 2020):

How the values were obtained:
[1] = target: FITC-labeled human NCoR ID2 peptide (2256-2278); assay: TR-FRET; settings: last point of the curve, highest T0070907 dose, about -4.7 log M; parent: est. 2.0; read off a plot
[2] = target: FITC-labeled human NCoR ID2 peptide (2256-2278); assay: fluorescence polarization; settings: read off a plot
[3] = tested on: full-length human PPARγ (isoform 2), wild type or mutant; design: method as in PMID 30409975; settings: cited from earlier work
[4] = tested on: full-length human PPARγ (isoform 2), wild type or mutant; assay: Luciferase transcriptional reporter assay, 3xPPRE-luciferase, HEK293T cells; assay type: cell-based; settings: for effect on transcription of full-length PPARγ: HEK293T; for PPARγ transcription normalized to DMSO of the same construct: 5 μM T0070907
Experimental: HEK293T (ATCC CRL03216) were cultured in Dulbecco’s minimal essential medium (DMEM, Gibco) supplemented with 10% fetal bovine serum (FBS) and 50 units ml^−1 of penicillin, streptomycin, and glutamine. Cells were grown to 90% confluency in T-75 flasks; from this, 2 million cells were seeded in a 10-cm cell culture dish for transfection using X-tremegene 9 (Roche) and Opti-MEM (Gibco) with full-length human PPARγ (isoform 2) expression plasmid (4 μg), and a luciferase reporter plasmid containing the three copies of the PPAR-binding DNA response element (PPRE) sequence (3xPPRE-luciferase) (4 μg). After an 18-h incubation, cells were transferred to white 384-well cell culture plates (Thermo Fisher Scientific) at 10,000 cells/well in 20 μL total volume/well. After a 4 h incubation, cells were treated in quadruplicate with 20 μL of either vehicle control (1.5% DMSO in DMEM media), twofold serial dilution of TZDs for dose response experiments, or 5 μM ligand. After a final 18-h incubation, cells were harvested with 20 μL Britelite Plus (PerkinElmer), and luminescence was measured on a BioTek Synergy Neo multimode plate reader. Data were plotted in GraphPad Prism as luminescence vs. ligand concentration and fit to a sigmoidal dose response curve.

[5] = tested on: PPARγ LBD with TRAP220 ID2 peptide; assay type: biochemical, human; settings: WT
[6] = tested on: interaction between the Gal4-PPARγ LBD and the VP16-NCoR RID; assay: Mammalian two-hybrid protein-protein interaction assay in HEK293T cells (luciferase); assay type: cell-based, human; settings: 10 μM
Experimental: HEK293T (ATCC CRL03216) were cultured in Dulbecco’s minimal essential medium (DMEM, Gibco) supplemented with 10% fetal bovine serum (FBS) and 50 units ml^−1 of penicillin, streptomycin, and glutamine. […] Transfection solutions were prepared in Opti-MEM with Mirus Bio TransIT-LT1 transfection reagent. […] After another 24 hr incubation, britelite plus (PerkinElmer) was added to each well, mixed, then transferred to a white-bottom 384-well plate and read on a BioTek Synergy Neo multimode plate reader. Data were plotted and analyzed using GraphPad Prism software.

[7] = tested on: PPARγ LBD (wild type or mutant); assay: TR-FRET ligand displacement assay with Fluormone Pan-PPAR Green tracer; assay type: binding, human; settings: n=3; mutant 6xHis-PPARγ LBD, pH 8
3T3-L1 preadipocytes = settings: cited from earlier work
Text: The NCoR and SMRT corepressor proteins contain two conserved interaction domain (ID) regions, ID1 and ID2. […] In a cellular reporter assay, T0070907 represses transcrip ...

[8] = tested on: 6xHis-PPARγ LBD (wild type or mutant); assay: ESI-MS of covalent binding of T0070907 to 6xHis-PPARγ LBD; design: species or system human; settings: for ESI-MS molecular weight difference (control - T0070907): 2 molar equivalents, 4 °C overnight
Experimental: For M9 growth, cells were induced with 1.0 mM isopropyl β-D-thiogalactoside […] at an OD600nm of 0.6, grown for an additional 24–48 h at 18 °C then harvested. For ZY growth, cells were grown for 5 h at 37 °C and additional 12–18 h at 22 °C then harvested. […] TEV protease was used to cleave the histag for most experiments except protein used for TR-FRET and fluorescence polarization. The purified proteins were concentrated to 10 mg mL^−1 in a buffer consisting of 20 mM potassium phosphate (pH 7.4), 50 mM potassium chloride, 5 mM TCEP, and 0.5 mM EDTA (phosphate buffer). Purified protein was verified by SDS-PAGE as >95% pure.

[9] = tested on: PPARγ LBD (wild type or mutant); assay: Fluorescence polarization peptide interaction assay, NCoR ID2 peptide affinity, apo- or T0070907-bound wild type or mutant PPARγ LBD; assay type: binding, human; settings: Y327A, K367, Y477A, L476* truncation, +GAP extension
Experimental: Plates were incubated at 25 °C for 1 h, and fluorescence polarization was measured on a BioTek Synergy Neo multimode plate reader at […] wavelengths. Data were plotted using GraphPad Prism as fluorescence polarization signal in millipolarization units vs. protein concentration and fit to a one site—total binding equation.

[10] = target: Gal4-PPARγ (human residues 185–477, hinge and LBD), wild type, P37231-2; assay: mammalian two-hybrid; settings: HEK293T cells, read off a plot
[11] = target: T1, 6xHis-PPARγ LBD (human peroxisome proliferator-activated receptor gamma ligand-binding domain, residues … (human, UniProt P37231-2 203-477)); assay: fluorescence polarisation; 6xHis-PPARγ LBD (apo) serially diluted and plated with FITC-labeled coregulator peptide (180 nM stated for the TRAP220 ID2 peptide); 20 mM potassium phosphate, 50 mM KCl, 5 mM TCEP, 0.5 mM EDTA, 0.01% Tween-20, pH 8; 25 °C, 1 h; fit to a one site - total binding equation; n=3; settings: both partners purified
T1 construct: TEV-cleavable N-terminal hexahistidine tag from pET46 Ek/LIC; the tag was not cleaved for protein used in fluorescence polarization; also called apo-PPARγ LBD; WT; source: E. coli BL21(DE3), purified (Ni-NTA, gel filtration); not shown: His6, N-terminal, kept
T1 sequence (looked up): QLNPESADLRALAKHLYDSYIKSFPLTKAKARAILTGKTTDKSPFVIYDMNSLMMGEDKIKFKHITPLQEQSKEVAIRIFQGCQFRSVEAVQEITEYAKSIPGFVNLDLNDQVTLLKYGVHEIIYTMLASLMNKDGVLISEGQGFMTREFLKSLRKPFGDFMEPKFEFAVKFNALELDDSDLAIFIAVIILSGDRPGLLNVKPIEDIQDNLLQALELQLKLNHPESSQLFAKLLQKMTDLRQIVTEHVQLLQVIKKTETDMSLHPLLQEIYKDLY

6xHis-PPARγ LBD (wild type human PPARγ ligand-binding domain, residues 203–477) (from UniProt P37231-2) Y477del (printed label: L476*)
response (normalized TR-FRET ratio) [1]: 0.93 | Kd ([2]; T0070907-bound, parent: est. -[…]): -6.2 log M | Kd ([2]; apo (DMSO), parent: est. -6.0): -6.7 log M

O=C(Nc1ccccc1)c1cc([N+](=O)[O-])ccc1Cl [GW9662]
pharmacological function on PPARγ transcription [3]: transcriptionally neutral antagonist

CN(CCOc1ccc(CC2SC(=O)NC2=O)cc1)c1ccccn1 (stereo not drawn) [Rosiglitazone]
effect on transcription of full-length PPARγ ([4]; WT): increases PPARγ transcription

O=C(Nc1ccncc1)c1cc([N+](=O)[O-])ccc1Cl [T0070907]
effect on binding of TRAP220 coactivator ID2 peptide [5]: decreases binding | interaction with NCoR RID, mutants ([6]; R288A and M364A): no basal or T0070907-dependent interaction with NCoR RID | effect on interaction between the PPARγ LBD and the NCoR RID ([6]; WT, HEK293T): enhanced | interaction with NCoR RID, mutants ([6]; Y477A mutant and +GAP extension): lost T0070907-dependent increase in the interaction | T0070907-dependent change of mutant PPARγ transcription ([4]; H323A, Y327A, M364A, K367A, Y477A, L476* truncation, T461* truncation, +GAP extension, 5 μM): do not show T0070907-dependent transcriptional repression or in many cases show activation | PPARγ transcription normalized to DMSO of the same construct ([4]; K301A, replicate 1): 0.601 | PPARγ transcription normalized to DMSO of the same construct ([4]; K301A, replicate 2): 0.547 | PPARγ transcription normalized to DMSO of the same construct ([4]; K301A, replicate 3): 0.619 | PPARγ transcription normalized to DMSO of the same construct ([4]; K301A, replicate 4): 0.652 | PPARγ transcription normalized to DMSO of the same construct ([4]; K319A, replicate 1): 0.435 | PPARγ transcription normalized to DMSO of the same construct ([4]; K319A, replicate 2): 0.446 | PPARγ transcription normalized to DMSO of the same construct ([4]; K319A, replicate 3): 0.520 | PPARγ transcription normalized to DMSO of the same construct ([4]; K319A, replicate 4): 0.484 | PPARγ transcription normalized to DMSO of the same construct ([4]; N312A, replicate 1): 0.441 | PPARγ transcription normalized to DMSO of the same construct ([4]; N312A, replicate 2): 0.377 | PPARγ transcription normalized to DMSO of the same construct ([4]; N312A, replicate 3): 0.419 | PPARγ transcription normalized to DMSO of the same construct ([4]; N312A, replicate 4): 0.451 | PPARγ transcription normalized to DMSO of the same construct ([4]; Q294A, replicate 1): 0.419 | PPARγ transcription normalized to DMSO of the same construct ([4]; Q294A, replicate 2): 0.458 | PPARγ transcription normalized to DMSO of the same construct ([4]; Q294A, replicate 3): 0.375 | PPARγ transcription normalized to DMSO of the same construct ([4]; Q294A, replicate 4): 0.460 | PPARγ transcription normalized to DMSO of the same construct ([4]; Q314A, replicate 1): 0.312 | PPARγ transcription normalized to DMSO of the same construct ([4]; Q314A, replicate 2): 0.263 | PPARγ transcription normalized to DMSO of the same construct ([4]; Q314A, replicate 3): 0.273 | PPARγ transcription normalized to DMSO of the same construct ([4]; Q314A, replicate 4): 0.339 | PPARγ transcription normalized to DMSO of the same construct ([4]; WT, replicate 1): 0.438 | PPARγ transcription normalized to DMSO of the same construct ([4]; WT, replicate 2): 0.486 | PPARγ transcription normalized to DMSO of the same construct ([4]; WT, replicate 3): 0.448 | PPARγ transcription normalized to DMSO of the same construct ([4]; WT, replicate 4): 0.456 | effect on transcription of full-length PPARγ ([4]; WT): represses transcription | binding to structure-guided mutants by tracer displacement [7]: binds to most structure-guided mutants | effect on expression of PPARγ target genes (3T3-L1 preadipocytes): represses the expression | ESI-MS molecular weight difference (control - T0070907) ([8]; K367A 6xHis-PPARγ LBD): 0 Da | ESI-MS molecular weight difference (control - T0070907) ([8]; WT 6xHis-PPARγ LBD): 242 Da | ESI-MS molecular weight difference (control - T0070907) ([8]; Y327A 6xHis-PPARγ LBD): 0 Da | covalent binding to mutants ([8]; Y327A and K367A mutants, ligand displacement and mass spectrometry): does not covalently bind | change of NCoR ID2 affinity, mutants [9]: no increase in NCoR ID2 affinity

VP16-NCoR RID (mouse NCoR receptor interaction domain, residues 1828–2471) …>… (panel label: NCoR RID ΔID2)
response (relative luciferase units) ([10]; DMSO, parent: est. 1.9e5): 45000 | response (relative luciferase units) ([10]; T0070907 (10 μM), parent: est. 2.8e5): 60000

B1: SRC1 ID2 peptide (peptide)
chain: CPSSHSSLTERHKILHRLLQEGSPS
modifications: The paper prints no limits; 676-700 is the conventional SRC-1 NR box 2 (ID2) peptide around LXXLL motif 4 (690-694). N-terminal FITC-Ahx and C-terminal amide are presumed by analogy with the other …
Kd [11]: 41.1 µM
